We go through 26 molecules from US20240368104A1, “Novel Dialkoxynaphtho[2,3-C]Furan-1(3H)-One Derivatives and Pharmaceutical Composition For Preventing or Treating Respiratory Disease or SARS-COV-2 Infection Disease, Comprising Same” (priority 2021, published 2024).

In data set [1] the test system is SARS-COV-2. In words: microbe, parasite or virus in culture. On the set-up: SI (Selectivity Index, CC50/IC50): unit not given here. The note with it: for SI (Selectivity Index, CC50/IC50): SARS-COV-2, values >50 assumed to be 50; for IC50: read-out: SARS-COV-2 inhibition (IC50). Format: cell-based.
Data set [2] can be described thus: in vitro. The note with it: African green monkey.
The mark [3] stands for this setting: Severe acute respiratory syndrome coronavirus 2, Vero cells, 24 hours infection.
Setting [4] is: Severe acute respiratory syndrome coronavirus 2, Vero, 24 h.

Counter-ions that a name gives are not always drawn. Like-named read-outs stand apart in the source and are kept apart here.

Consider `COc1cc2cc3c(c(-c4cnc(Cl)c(N(C)C)c4)c2cc1OC)C(=O)OC3` [Example 201, 9-(6-chloro-5-(dimethylamino)pyridin-3-yl)-6,7-dimethoxynaphtho[2,3-c]furan-1(3H)-one], for which the “SI (Selectivity Index, CC50/IC50)” value in data set [1] was 39.52. In data set [1] (setting [3]), the IC50 was 1.27 µM. In data set [2], this molecule gave a CC50 of over 50 µM.
Taken in the same sequence, the figures for `COc1cc2cc3c(c(N4CCN(CCO)CC4)c2cc1OC)C(=O)OC3` [Example 144, 9-(4-(2-hydroxyethyl)piperazin-1-yl)-6,7-dimethoxynaphtho[2,3-c]furan-1(3H)-one] were 1.0, over 50 µM and over 50 µM.
Turning to `COc1cc2cc3c(c(-c4cnc(N5CCC[C@H]5C(N)=O)nc4)c2cc1OC)C(=O)OC3` [Example 49, (S)-1-(5-(6,7-dimethoxy-3-oxo-1,3-dihydronaphtho[2,3-c]furan-4-yl)pyrimidin-2-yl) pyrrolidin-2-carboxamide], the “SI (Selectivity Index, CC50/IC50)” value in data set [1] is 1.00. Also, the IC50 in data set [1] (setting [3]) was over 50 µM. For the same molecule, the CC50 in data set [2] is over 50 µM.
Regarding `COC(=O)CN(C)c1ncc(-c2c3c(cc4cc(OC)c(OC)cc24)COC3=O)cn1.Cl` [Example 90, methyl N-(5-(6,7-dimethoxy-3-oxo-1,3-dihydronaphtho[2,3-c]furan-4-yl)pyrimidin-2-yl)-N-methyl glycinate hydrochloride], the “SI (Selectivity Index, CC50/IC50)” value in data set [1] came out at 16.96. For the same molecule, in data set [1] (setting [4]), the IC50 turned out to be 2.95 µM. In data set [2], this molecule displayed a CC50 of over 50 µM.
Regarding `COc1cc2cc3c(c(-c4cnc(N(C)Cc5ccc(C)o5)nc4)c2cc1OC)C(=O)OC3` [Example 103, 6,7-dimethoxy-9-(2-(methyl((5-methylfuran-2-yl)methyl)amino)pyrimidin-5-yl)naphtho[2,3-c]furan-1(3H)-one hydrochloride], the “SI (Selectivity Index, CC50/IC50)” value in data set [1] is on record as 175.17. In addition, the IC50 in data set [1] (setting [4]) was 0.29 µM. The molecule further registered a CC50 in data set [2] of over 50 µM.
In the case of `COc1cc2cc3c(c(-c4ccc(N5C[C@@H](C)O[C@@H](C)C5)nc4)c2cc1OC)C(=O)OC3` [Example 121, 9-(6-((2S,6R)-2,6-dimethylmorpholino)pyridin-3-yl)-6,7-dimethoxynaphtho[2,3-c]furan-1(3H)-one], the “SI (Selectivity Index, CC50/IC50)” value in data set [1] was 21.51. Also, the IC50 in data set [1] (setting [3]) was 2.32 µM. The same molecule gave a CC50 in data set [2] of over 50 µM.
As to `CCN(CCO)c1ncc(-c2c3c(cc4cc(OC)c(OC)cc24)COC3=O)cn1.Cl` [Example 81, 9-(2-(ethyl(2-hydroxyethyl)amino)pyrimidin-5-yl)-6,7-dimethoxynaphtho[2,3-c]furan-1(3H)-one hydrochloride], the “SI (Selectivity Index, CC50/IC50)” value in data set [1] stood at 2.43. Also, the IC50 in data set [1] (setting [4]) worked out at 20.6 µM. Also, the CC50 in data set [2] is over 50 µM.
In the case of `COc1cc2cc3c(c(-c4ccc(N5CCC(O)CC5)nc4)c2cc1OC)C(=O)OC3` [Example 165, 9-(6-(4-hydroxypiperidin-1-yl)pyridin-3-yl)-6,7-dimethoxynaphtho[2,3-c]furan-1(3H)-one], the “SI (Selectivity Index, CC50/IC50)” value in data set [1] worked out at 11.69. Moreover, the IC50 in data set [1] (setting [3]) worked out at 2.91 µM. In data set [2], the CC50 was found to be 34 µM.
On to `COc1cc2cc3c(c(-c4cnc(N5CC(C)(C)OC(C)(C)C5)nc4)c2cc1OC)C(=O)OC3` [Example 114, 6,7-dimethoxy-9-(2-(2,2,6,6-tetramethylmorpholino)pyrimidin-5-yl)naphtho[2,3-c]furan-1(3H)-one], for which, in data set [1], the “SI (Selectivity Index, CC50/IC50)” value was 1.0. The IC50 in data set [1] (setting [3]) is over 50 µM. The molecule further registered a CC50 in data set [2] of over 50 µM.
For `COc1cc2c(OC)c3c(c(-c4ccc5c(c4)OCO5)c2cc1OC)COC3=O` [Example 262, 4-(benzo[d][1,3]dioxol-5-yl)-6,7,9-trimethoxynaphtho[2,3-c]furan-1(3H)-one], the “SI (Selectivity Index, CC50/IC50)” value in data set [1] is reported as 5.40. Besides, the IC50 in data set [1] (setting [4]) stood at 9.26 µM. Moreover, the CC50 in data set [2] was over 50 µM.
Turning to `CCN(c1ccc(-c2c3c(cc4cc(OC)c(OC)cc24)COC3=O)cn1)c1ncn(CC)n1` [Example 207, 9-(6-(ethyl(1-ethyl-1H-1,2,4-triazol-3-yl)amino)pyridin-3-yl)-6,7-dimethoxynaphtho[2,3-c]furan-1(3H)-one], the “SI (Selectivity Index, CC50/IC50)” value in data set [1] worked out at 7.57. For the same molecule, the half-inhibitory concentration (IC50) in data set [1] (setting [3]) came out at 6.6 µM. This molecule also gave a CC50 in data set [2] of over 50 µM.
For `CCCCCCCCCCN(CCCCCCCCCC)c1ncc(-c2c3c(cc4cc(OC)c(OC)cc24)COC3=O)cn1.Cl` [Example 87, 9-(2-(didecylamino)pyrimidin-5-yl)-6,7-dimethoxynaphtho[2,3-c]furan-1(3H)-one hydrochloride], in data set [1], the “SI (Selectivity Index, CC50/IC50)” value was 1.00. In addition, the IC50 in data set [1] (setting [4]) was over 50 µM. In data set [2], this molecule displayed a CC50 of over 50 µM.
As to `COc1cc2cc3c(c(-c4cnc(N5CCc6ccccc6[C@@H]5c5ccccc5)nc4)c2cc1OC)C(=O)OC3` [Example 151, (S)-6,7-dimethoxy-9-(2-(1-phenyl-3,4-dihydroisoquinolin-2 (1H)-yl)pyrimidin-5-yl)naphtho[2,3-c]furan-1(3H)-one], the “SI (Selectivity Index, CC50/IC50)” value in data set [1] was 1.0. In data set [1] (setting [3]), the IC50 is over 50 µM. Also, the CC50 in data set [2] was over 50 µM.
Regarding `COc1cc2cc3c(c(N4CCN(CCN5CCOCC5)CC4)c2cc1OC)C(=O)OC3` [Example 143, 6,7-dimethoxy-9-(4-(2-morpholinoethyl)piperazin-1-yl)naphtho[2,3-c]furan-1(3H)-one], the “SI (Selectivity Index, CC50/IC50)” value in data set [1] was 1.0. For the same molecule, the IC50 in data set [1] (setting [3]) is over 50 µM. The molecule further gave a CC50 in data set [2] of over 50 µM.
In the case of `COc1cc2cc3c(c(-c4ccc(N(C)C(=O)C(C)(C)C)nc4)c2cc1OC)C(=O)OC3` [Example 233, N-(5-(6,7-dimethoxy-3-oxo-1,3-dihydronaphtho[2,3-c]furan-4-yl)pyridin-2-yl)-N-methylpivalamide], the “SI (Selectivity Index, CC50/IC50)” value in data set [1] is 1.00. In addition, in data set [1] (setting [3]), the IC50 is over 50 µM. Moreover, the CC50 in data set [2] was over 50 µM.
As to `CNc1ccc(-c2c3c(cc4cc(OC)c(OC)cc24)COC3=O)cn1` [Example 229, 6,7-dimethoxy-9-(6-(methylamino)pyridin-3-yl)naphtho[2,3-c]furan-1(3H)-one], in data set [1], the “SI (Selectivity Index, CC50/IC50)” value is listed as 17.63. Further, the IC50 in data set [1] (setting [3]) turned out to be 2.84 µM. For the same molecule, the CC50 in data set [2] was over 50 µM.
Turning to `COc1cc2cc3c(c(-c4cnc(N(C)CCN5CCOCC5)nc4)c2cc1OC)C(=O)OC3` [Example 111, 6,7-dimethoxy-9-(2-(methyl(2-morpholinoethyl)amino)pyrimidin-5-yl)naphtho[2,3-c]furan-1(3H)-one hydrochloride], the “SI (Selectivity Index, CC50/IC50)” value in data set [1] was determined as 2.37. For the same molecule, the IC50 in data set [1] (setting [4]) was determined as 21.1 µM. In data set [2], this molecule returned a CC50 of over 50 µM.
As for `COc1cc2cc3c(c(-c4ccc(N5CCOCC5)cc4)c2cc1OC)C(=O)OC3.Cl` [Example 245, 6,7-dimethoxy-9-(4-morpholinophenyl)naphtho[2,3-c]furan-1(3H)-one], the “SI (Selectivity Index, CC50/IC50)” value in data set [1] is reported as 1.00. Besides, in data set [1] (setting [4]), the IC50 was over 50 µM. Besides, the CC50 in data set [2] is over 50 µM.
For `COc1cc2cc3c(c(-c4cc5c(cc4OP(=O)(NC(C)C)c4ccccc4)OCO5)c2cc1OC)C(=O)OC3` (stereo not drawn) [Example 281, 6-(6,7-dimethoxy-3-oxo-1,3-dihydronaphtho[2,3-c]furan-4-yl)benzo[d][1,3]dioxol-5-yl N-isopropyl-P-phenylphosphoramidate], the “SI (Selectivity Index, CC50/IC50)” value in data set [1] worked out at 3.45. Further, in data set [1] (setting [4]), the IC50 came to 14.5 µM. Further, in data set [2], the CC50 is over 50 µM.
`COc1cc2cc3c(c(-c4ccnc5c(OC)cccc45)c2cc1OC)C(=O)OC3` [Example 140, 6,7-dimethoxy-9-(8-methoxyquinolin-4-yl)naphtho[2,3-c]furan-1(3H)-one]: the “SI (Selectivity Index, CC50/IC50)” value in data set [1] was found to be 1.0. In data set [1] (setting [3]), the IC50 was over 50 µM. The same molecule came in with a CC50 in data set [2] of over 50 µM.
Regarding `COc1cc2cc3c(c(-c4cnc(N5C[C@@H](C)O[C@@H](C)C5)nc4)c2cc1OC)C(=O)OC3` [Example 8, 9-(2-((2S,6R)-2,6-dimethylmorpholino)pyrimidin-5-yl)-6,7-dimethoxynaphtho[2,3-c]furan-1(3H)-one], the “SI (Selectivity Index, CC50/IC50)” value in data set [1] was 17.39. Besides, in data set [1] (setting [3]), the IC50 is 2.87 µM. Besides, in data set [2], the CC50 is over 50 µM.
Taken in the same sequence, the figures for `COc1cc2cc3c(c(-c4ccc(C(F)(F)F)c5cccnc45)c2cc1OC)C(=O)OC3` [Example 119, 6,7-dimethoxy-9-(5-(trifluoromethyl)quinolin-8-yl)naphtho[2,3-c]furan-1(3H)-one] were 11.45, 4.36 µM and over 50 µM.
The corresponding values for `CCN(CC)c1ccc(-c2c3c(cc4cc(OC)c(OC)cc24)COC3=O)cc1` [Example 249, 9-(4-(diethylamino)phenyl)-6,7-dimethoxynaphtho[2,3-c]furan-1(3H)-one] are 100.23, 0.5 µM and over 50 µM.
Regarding `COc1cc2cc3c(c(-c4ccc(N(C)c5nn(C)cc5C#N)nc4)c2cc1OC)C(=O)OC3.Cl` [Example 241, 3-((5-(6,7-dimethoxy-3-oxo-1,3-dihydronaphtho[2,3-c]furan-4-yl)pyridin-2-yl)(methyl)amino)-1-methyl-1H-pyrazol-4-carbonitrile], the “SI (Selectivity Index, CC50/IC50)” value in data set [1] came to 1.00. Further, the IC50 in data set [1] (setting [4]) was over 50 µM. In data set [2], this molecule had a CC50 of over 50 µM.
On to `CC[C@@H]1CCCCN1c1ncc(-c2c3c(cc4cc(OC)c(OC)cc24)COC3=O)cn1` [Example 113, (R)-9-(2-(2-ethylpiperidin-1-yl)pyrimidin-5-yl)-6,7-dimethoxynaphtho[2,3-c]furan-1(3H)-one], for which the “SI (Selectivity Index, CC50/IC50)” value in data set [1] came out at 50.52. The IC50 in data set [1] (setting [3]) came out at 0.99 µM. This molecule also yielded a CC50 in data set [2] of over 50 µM.
As to `COc1cc2cc3c(c(-c4ccc(N(C)CC5CCCO5)nc4)c2cc1OC)C(=O)OC3` (stereo not drawn) [Example 192, 6,7-dimethoxy-9-(6-(methyl((tetrahydrofuran-2-yl)methyl)amino)pyridin-3-yl)naphtho[2,3-c]furan-1(3H)-one], in data set [1], the “SI (Selectivity Index, CC50/IC50)” value came to 10.08. Also, in data set [1] (setting [3]), the IC50 was 4.96 µM. Further, the CC50 in data set [2] is over 50 µM.

One may read the IC50 as the concentration needed to halve the response being measured.
